In ChEMBL document CHEMBL1146800, “Structure-based design of amidinophenylurea-derivatives for factor VIIa inhibition” (Bioorg Med Chem Lett, 2004):

Key:
Coagulation factor X = Coagulation factor X (Homo sapiens, UniProt P00742); assay: In vitro inhibition of coagulation factor X
Coagulation factor VII = molecular target: T1, Coagulation factor VII (Homo sapiens, UniProt P08709); assay: In vitro inhibition of human coagulation factor VIIa
T1 sequence (P08709 whole entry): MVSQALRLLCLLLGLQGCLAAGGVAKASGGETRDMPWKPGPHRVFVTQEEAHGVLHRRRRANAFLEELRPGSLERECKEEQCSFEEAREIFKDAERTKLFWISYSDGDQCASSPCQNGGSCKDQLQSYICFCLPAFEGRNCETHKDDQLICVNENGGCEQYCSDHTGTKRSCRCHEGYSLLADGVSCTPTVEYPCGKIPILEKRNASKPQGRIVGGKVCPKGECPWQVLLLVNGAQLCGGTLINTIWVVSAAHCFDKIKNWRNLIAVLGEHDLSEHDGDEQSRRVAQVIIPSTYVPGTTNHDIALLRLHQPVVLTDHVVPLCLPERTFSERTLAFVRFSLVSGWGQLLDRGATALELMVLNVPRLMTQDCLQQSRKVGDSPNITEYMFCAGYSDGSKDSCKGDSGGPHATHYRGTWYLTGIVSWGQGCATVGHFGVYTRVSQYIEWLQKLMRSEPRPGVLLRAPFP

Prothrombin = Prothrombin (Homo sapiens, UniProt P00734); assay: In vitro inhibition of thrombin

Chain of Coagulation factor X (P00742 41-179 limits assumed): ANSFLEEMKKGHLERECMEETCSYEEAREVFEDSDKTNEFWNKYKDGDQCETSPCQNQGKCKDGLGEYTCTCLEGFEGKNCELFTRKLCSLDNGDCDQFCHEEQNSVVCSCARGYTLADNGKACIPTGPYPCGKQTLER
Chain of Coagulation factor X (P00742 235-488 limits assumed): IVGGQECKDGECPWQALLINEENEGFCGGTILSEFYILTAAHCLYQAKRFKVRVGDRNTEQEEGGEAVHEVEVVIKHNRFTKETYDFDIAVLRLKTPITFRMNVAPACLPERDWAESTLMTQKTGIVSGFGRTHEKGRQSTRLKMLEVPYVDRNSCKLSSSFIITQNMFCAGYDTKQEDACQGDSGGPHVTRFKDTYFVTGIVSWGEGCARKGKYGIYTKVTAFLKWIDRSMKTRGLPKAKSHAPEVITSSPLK

Row | Ki (Coagulation factor X) | Ki (Coagulation factor VII) | Ki (Prothrombin) | SMILES
1 | > 10 µM | 0.047 µM | 14.5 µM | CC(NC(=O)CNC(=O)Nc1ccc(C(=N)N)cc1)c1ccc(NC(=O)C2CC2)cc1 (stereo not given)
2 | > 10 µM | 0.015 µM | 0.65 µM | CC(NC(=O)CNC(=O)Nc1ccc(C(=N)N)cc1)c1ccc(N2CCOCC2)c(Br)c1 (stereo not given)
3 |  | 0.133 µM |  | CC(NC(=O)CNC(=O)Nc1ccc(C(=N)N)cc1)c1ccc(OCc2ccccc2)cc1 (stereo not given)
4 | 6.23 µM |  | 3.18 µM | C[C@H](NC(=O)CNC(=O)Nc1ccc(C(=N)N)cc1)c1ccc2ccccc2c1
5 | > 10 µM | 0.156 µM | 6.76 µM | C[C@H](NC(=O)CNC(=O)Nc1ccc(C(=N)N)cc1)c1ccc(Br)cc1
6 |  | 0.19 µM |  | CC(NC(=O)CNC(=O)Nc1ccc(C(=N)N)cc1)c1ccc(Cc2ccccc2)cc1 (stereo not given)
7 | > 10 µM | 0.02 µM | 2.3 µM | COc1cccc(COc2ccc(C(C)NC(=O)CNC(=O)Nc3ccc(C(=N)N)cc3)cc2)c1 (stereo not given)
8 | > 10 µM |  | 68.5 µM | CC(NC(=O)CNC(=O)Nc1ccc(C(=N)N)cc1)c1ccc(NC(=O)C2CCNCC2)cc1 (stereo not given)
9 | > 10 µM | 0.02 µM | 12.1 µM | CC(NC(=O)CNC(=O)Nc1ccc(C(=N)N)cc1)c1ccc(C(=O)Nc2ccccc2)cc1 (stereo not given)
10 | > 10 µM | 0.078 µM | 9.1 µM | CC(NC(=O)CNC(=O)Nc1ccc(C(=N)N)cc1)c1ccc(Oc2ccccc2)cc1 (stereo not given)
11 | 4.6 µM | 0.034 µM | 14.8 µM | CC(NC(=O)CNC(=O)Nc1ccc(C(=N)N)cc1)c1ccc(NC(=O)c2ccccc2)cc1 (stereo not given)
12 |  | 0.077 µM |  | CC(NC(=O)CNC(=O)Nc1ccc(C(=N)N)cc1)c1ccc(Cl)c(Cl)c1 (stereo not given)
13 | > 10 µM | 0.043 µM | 11.9 µM | CC(NC(=O)CNC(=O)Nc1ccc(C(=N)N)cc1)c1ccc(C(=O)Nc2cccc(Oc3ccccc3)c2)cc1 (stereo not given)
14 | > 10 µM |  | 0.5 µM | COC(=O)c1cc(C(C)NC(=O)CNC(=O)Nc2ccc(C(=N)N)cc2)ccc1OCc1ccccc1 (stereo not given)
15 |  | 7 µM |  | C[C@@H](NC(=O)CNC(=O)Nc1ccc(C(=N)N)cc1)c1ccc2ccccc2c1
16 | > 10 µM | 0.142 µM | 3.2 µM | CC(NC(=O)CNC(=O)Nc1ccc(C(=N)N)cc1)c1ccc(N2CCOCC2)cc1 (stereo not given)
17 | 14.5 µM |  |  | N=C(N)c1ccc(NC(=O)NCC(=O)NCc2ccc(Cl)c(Cl)c2)cc1
18 | > 10 µM | 0.023 µM | 2.3 µM | CC(NC(=O)CNC(=O)Nc1ccc(C(=N)N)cc1)c1ccc(OCc2cccc(Cl)c2)cc1 (stereo not given)
19 |  | 0.256 µM |  | CC(NC(=O)CNC(=O)Nc1ccc(C(=N)N)cc1)c1cccc(OCc2ccccc2)c1 (stereo not given)
20 | > 10 µM | 0.196 µM | > 50 µM | CC(=O)Nc1ccc(C(C)NC(=O)CNC(=O)Nc2ccc(C(=N)N)cc2)cc1 (stereo not given)
21 | > 10 µM | 0.03 µM | 1.9 µM | CC(NC(=O)CNC(=O)Nc1ccc(C(=N)N)cc1)c1ccc(N2CCOCC2)c(C(F)(F)F)c1 (stereo not given)
22 | 10.7 µM |  | 9.8 µM | COc1ccc(Oc2ccc(C(C)NC(=O)CNC(=O)Nc3ccc(C(=N)N)cc3)cc2)cc1 (stereo not given)
23 | > 10 µM |  | 33.2 µM | CC(NC(=O)CNC(=O)Nc1ccc(C(=N)N)cc1)c1ccc(NC(=O)c2cccc(Oc3ccccc3)c2)cc1 (stereo not given)
24 | > 10 µM | 0.026 µM | 10.9 µM | Cc1cccc(C(=O)Nc2ccc(C(C)NC(=O)CNC(=O)Nc3ccc(C(=N)N)cc3)cc2)c1 (stereo not given)
